# Measured values taken from ChEMBL document CHEMBL1208707, “T-type calcium channel blockers: spiro-piperidine azetidines and azetidinones-optimization, design and synthesis” (Bioorg Med Chem Lett, 2010).
# Molecular target: Transient receptor potential cation channel subfamily V member 1 (Homo sapiens) (UniProt Q8NER1)
# Experiment: Inhibition of TRPV1 expressed in HEK293 assessed as capsaicin activation cells at 3.3 ug/mL by FLIPR assay
# Assay type: cell-based
# Sequence of Transient receptor potential cation channel subfamily V member 1 (Homo sapiens) (Q8NER1 whole entry): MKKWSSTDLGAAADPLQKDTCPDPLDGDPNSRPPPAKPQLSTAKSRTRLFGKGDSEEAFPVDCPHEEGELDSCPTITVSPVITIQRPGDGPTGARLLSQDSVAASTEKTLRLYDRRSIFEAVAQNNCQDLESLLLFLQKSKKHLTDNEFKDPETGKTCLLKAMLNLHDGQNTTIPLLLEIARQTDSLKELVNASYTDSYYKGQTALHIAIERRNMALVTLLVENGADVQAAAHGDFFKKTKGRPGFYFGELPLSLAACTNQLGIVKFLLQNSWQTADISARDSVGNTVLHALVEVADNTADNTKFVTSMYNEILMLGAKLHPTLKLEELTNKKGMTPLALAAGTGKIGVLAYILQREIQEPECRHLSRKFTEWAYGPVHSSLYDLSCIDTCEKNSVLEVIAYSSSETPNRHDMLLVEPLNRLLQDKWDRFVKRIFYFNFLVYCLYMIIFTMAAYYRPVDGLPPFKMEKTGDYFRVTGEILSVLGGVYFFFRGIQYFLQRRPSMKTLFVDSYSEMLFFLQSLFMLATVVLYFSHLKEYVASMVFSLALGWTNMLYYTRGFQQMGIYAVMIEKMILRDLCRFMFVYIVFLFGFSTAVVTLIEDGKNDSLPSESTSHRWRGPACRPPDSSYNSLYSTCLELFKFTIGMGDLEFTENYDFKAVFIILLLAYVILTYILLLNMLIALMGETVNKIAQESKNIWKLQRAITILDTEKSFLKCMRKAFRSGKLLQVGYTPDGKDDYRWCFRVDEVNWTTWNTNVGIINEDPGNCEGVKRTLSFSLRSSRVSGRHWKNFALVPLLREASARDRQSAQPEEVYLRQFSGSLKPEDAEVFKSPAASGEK
row,SMILES,inhibition [%]
1,CC[C@H](C)[C@H](NC(=O)N1CCC2(CC1)C(=O)N(c1cccc(F)c1)C2c1ccc(Cl)cc1)C(=O)OC (stereo in doubt; 23a),6.18
2,N#Cc1cccc(NC(=O)N2CCC3(CC2)C(=O)N(c2cccc(F)c2)C3c2ccc(Cl)cc2)c1 (stereo in doubt; 37a),4.79
3,CC[C@H](C)[C@H](NC(=O)N1CCC2(CC1)C(=O)N(c1cccc(F)c1)C2c1ccc(Cl)cc1)C(=O)OC (stereo in doubt; 23b) [listing 1 of 2 here],8.79
4,CC[C@H](C)[C@H](NC(=O)N1CCC2(CC1)C(=O)N(c1cccc(F)c1)C2c1ccc(Cl)cc1)C(=O)NC (stereo partly specified),4.8
5,O=C(Nc1cc(F)cc(F)c1)N1CCC2(CC1)C(=O)N(c1cncc(Cl)c1)C2c1ccccn1 (racemic),6.7
6,CC[C@H](C)[C@H](NC(=O)N1CCC2(CC1)C(=O)N(c1cccc(F)c1)C2c1ccc(Cl)cc1)C(=O)OC(C)C (stereo partly specified),18

# The next lines start with the values.
row,inhibition [%],SMILES
1,89,O=C(Nc1ccc(F)c(F)c1)N1CCC2(CC1)C(=O)N(c1cccc(Cl)c1)C2c1ccccn1 (stereo in doubt; 42b)
2,12.5,CC[C@H](C)[C@H](NC(=O)N1CCC2(CC1)CN(c1cccc(F)c1)C2c1ccc(Cl)cc1)C(=O)OC (stereo in doubt; 22b) [listing 1 of 2 here]
3,30.1,O=C(Nc1cc(F)cc(F)c1)N1CCC2(CC1)CN(c1cccc(F)c1)C2c1ccc(Cl)cc1 (stereo in doubt; 35b) [listing 1 of 2 here]
4,87.1,CC[C@H](C)[C@H](NC(=O)N1CCC2(CC1)CN(C(C)C)C2c1ccc(Cl)cc1)C(=O)OC (stereo in doubt; 2)
5,48,O=C(Nc1ccc(F)c(F)c1)N1CCC2(CC1)C(=O)N(c1ccc(F)c(Cl)c1)C2c1ccccn1 (stereo in doubt; 40a)
6,38,O=C(Nc1cc(F)cc(F)c1)N1CCC2(CC1)C(=O)N(c1cccc(Cl)c1)C2c1ccccn1 (stereo in doubt; 44a)
7,30,N#Cc1cccc(NC(=O)N2CCC3(CC2)C(=O)N(c2cccc(Cl)c2)C3c2ccccn2)c1 (stereo in doubt; 43a)
8,6.22,O=C(Nc1cc(F)cc(F)c1)N1CCC2(CC1)CN(c1cccc(F)c1)C2c1ccc(Cl)cc1 (stereo in doubt; 35a) [listing 1 of 2 here]

# Molecular target: Voltage-dependent T-type calcium channel subunit alpha-1H (Homo sapiens, UniProt O95180)
# Experiment: Inhibition of human CaV3.2 expressed in HEK293 cells at -100 mV membrane potential by Ionworks HT assay
# Assay type: cell-based
# Sequence of Voltage-dependent T-type calcium channel subunit alpha-1H (O95180 whole entry): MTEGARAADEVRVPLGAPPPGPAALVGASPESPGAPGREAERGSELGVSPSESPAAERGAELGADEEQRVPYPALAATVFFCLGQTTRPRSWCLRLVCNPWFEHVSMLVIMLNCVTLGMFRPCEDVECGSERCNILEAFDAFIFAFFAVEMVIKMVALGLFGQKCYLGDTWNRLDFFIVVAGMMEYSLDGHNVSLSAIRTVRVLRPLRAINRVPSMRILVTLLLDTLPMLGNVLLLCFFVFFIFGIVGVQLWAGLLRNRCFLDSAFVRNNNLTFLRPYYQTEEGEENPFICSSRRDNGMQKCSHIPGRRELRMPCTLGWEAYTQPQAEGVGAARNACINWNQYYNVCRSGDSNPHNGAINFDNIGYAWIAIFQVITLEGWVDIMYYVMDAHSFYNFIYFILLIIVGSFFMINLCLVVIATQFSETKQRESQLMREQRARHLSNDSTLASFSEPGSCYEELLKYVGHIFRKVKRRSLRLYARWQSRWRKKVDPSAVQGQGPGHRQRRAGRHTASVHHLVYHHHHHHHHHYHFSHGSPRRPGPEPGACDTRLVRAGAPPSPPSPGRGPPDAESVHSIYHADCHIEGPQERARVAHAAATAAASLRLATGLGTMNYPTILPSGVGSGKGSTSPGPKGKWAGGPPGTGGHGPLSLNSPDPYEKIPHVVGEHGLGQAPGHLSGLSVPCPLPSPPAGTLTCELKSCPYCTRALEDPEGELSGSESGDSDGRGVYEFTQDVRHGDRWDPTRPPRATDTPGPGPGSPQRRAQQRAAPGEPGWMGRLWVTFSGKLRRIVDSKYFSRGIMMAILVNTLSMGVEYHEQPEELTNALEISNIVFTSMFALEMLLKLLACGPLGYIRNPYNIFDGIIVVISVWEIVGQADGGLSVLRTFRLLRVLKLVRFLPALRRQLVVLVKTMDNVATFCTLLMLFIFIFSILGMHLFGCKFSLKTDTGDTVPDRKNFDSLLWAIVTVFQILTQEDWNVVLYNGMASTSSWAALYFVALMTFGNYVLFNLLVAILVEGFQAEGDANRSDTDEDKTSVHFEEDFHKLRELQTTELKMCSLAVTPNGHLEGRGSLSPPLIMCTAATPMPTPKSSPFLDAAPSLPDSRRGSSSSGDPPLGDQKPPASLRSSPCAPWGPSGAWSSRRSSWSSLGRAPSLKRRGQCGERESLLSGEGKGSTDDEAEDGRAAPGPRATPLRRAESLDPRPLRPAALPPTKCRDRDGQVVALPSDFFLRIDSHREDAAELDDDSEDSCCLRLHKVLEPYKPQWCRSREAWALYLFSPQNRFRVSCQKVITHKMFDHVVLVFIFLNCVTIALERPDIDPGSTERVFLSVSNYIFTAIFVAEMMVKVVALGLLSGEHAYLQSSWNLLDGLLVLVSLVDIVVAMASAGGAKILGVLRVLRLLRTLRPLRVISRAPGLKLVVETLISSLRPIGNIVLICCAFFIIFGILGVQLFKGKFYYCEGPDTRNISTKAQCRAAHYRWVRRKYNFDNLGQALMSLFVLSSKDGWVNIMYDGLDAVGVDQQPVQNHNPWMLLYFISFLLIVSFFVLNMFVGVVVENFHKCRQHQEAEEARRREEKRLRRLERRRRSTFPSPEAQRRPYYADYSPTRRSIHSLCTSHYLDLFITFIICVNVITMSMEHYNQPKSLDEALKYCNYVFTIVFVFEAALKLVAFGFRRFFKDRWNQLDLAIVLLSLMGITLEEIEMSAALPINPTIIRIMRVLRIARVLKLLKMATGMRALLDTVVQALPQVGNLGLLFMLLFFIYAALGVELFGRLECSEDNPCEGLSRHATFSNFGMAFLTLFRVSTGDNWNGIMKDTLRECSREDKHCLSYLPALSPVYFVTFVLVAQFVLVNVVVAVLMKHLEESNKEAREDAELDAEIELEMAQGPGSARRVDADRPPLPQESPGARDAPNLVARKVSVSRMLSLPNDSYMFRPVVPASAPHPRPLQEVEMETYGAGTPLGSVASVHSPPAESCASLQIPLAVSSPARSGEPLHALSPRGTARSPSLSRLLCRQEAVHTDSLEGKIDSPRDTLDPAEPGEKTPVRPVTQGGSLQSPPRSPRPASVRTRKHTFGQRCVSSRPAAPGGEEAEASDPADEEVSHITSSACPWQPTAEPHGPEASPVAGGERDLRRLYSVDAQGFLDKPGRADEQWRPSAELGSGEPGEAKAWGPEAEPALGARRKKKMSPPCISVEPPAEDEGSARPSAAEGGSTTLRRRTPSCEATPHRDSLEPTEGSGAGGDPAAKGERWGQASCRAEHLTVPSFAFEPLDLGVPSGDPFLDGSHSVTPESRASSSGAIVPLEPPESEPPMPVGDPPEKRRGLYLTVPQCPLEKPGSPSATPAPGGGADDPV
row,SMILES,IC50 [nM]
1,O=C(Nc1cc(F)cc(F)c1)N1CCC2(CC1)CN(c1cccc(F)c1)C2c1ccc(Cl)cc1 (stereo in doubt; 35b) [listing 2 of 2 here],3200
2,O=C(Nc1ccc(F)c(F)c1)N1CCC2(CC1)C(=O)N(c1cccc(Cl)c1)C2c1cccc[n+]1[O-] (stereo in doubt; form 2),1500
3,CC[C@H](C)[C@H](NC(=O)N1CCC2(CC1)CN(c1cccc(F)c1)C2c1ccc(Cl)cc1)C(=O)OC (stereo in doubt; 22b) [listing 2 of 2 here],3200
4,CC[C@H](C)[C@H](NC(=O)N1CCC2(CC1)C(=O)N(c1cccc(F)c1)C2c1ccc(Cl)cc1)C(=O)OC (stereo in doubt; 23b) [listing 2 of 2 here],872
5,O=C(Nc1cccc(C(F)(F)F)c1)N1CCC2(CC1)C(=O)N(c1ccc(F)c(F)c1)C2c1ccccn1 (stereo in doubt; 41a),17

# Second part, the compound after the results:
row,IC50 [nM],SMILES
1,2380,N#Cc1cccc(N2C(=O)C3(CCN(C(=O)Nc4cc(F)cc(F)c4)CC3)C2c2ccccn2)c1 (racemic)
2,3500,O=C(Nc1cc(F)cc(F)c1)N1CCC2(CC1)CN(c1cccc(F)c1)C2c1ccc(Cl)cc1 (stereo in doubt; 35a) [listing 2 of 2 here]
3,176,O=C(Nc1cc(F)cc(F)c1)N1CCC2(CC1)C(=O)N(c1ccc(F)c(Cl)c1)C2c1ccccn1 (stereo in doubt; 39b)
4,146,CC[C@H](C)[C@H](NC(=O)N1CCC2(CC1)CN(c1cccc(F)c1)C2c1ccc(Cl)cc1)C(=O)OC (stereo in doubt; 22a)
5,586,O=C(Nc1cc(F)cc(F)c1)N1CCC2(CC1)C(=O)N(c1cccc(F)c1)C2c1ccc(Cl)cc1 (stereo in doubt; 36a)
6,1060,N#Cc1cccc(NC(=O)N2CCC3(CC2)C(=O)N(c2cccc(F)c2)C3c2ccc(Cl)cc2)c1 (stereo in doubt; 37b)
7,402,O=C(Nc1ccc(F)c(F)c1)N1CCC2(CC1)C(=O)N(c1ccc(F)c(Cl)c1)C2c1ccccn1 (stereo in doubt; 40b)
